{
  "source": "patent US4181731A",
  "about": "“Novel therapeutic application of 4-carbamoyl-5-hydroxyimidazole” (Sumitomo Chemical Company, Limited, priority 1978, dated 1980)",
  "key": {"[1]": {"tested_on": "Masuji nephritis", "experiment": "Antinephritic effects on Masuji nephritis", "format": "in vivo", "details": "for Urinary Protein: control 238.9; for Inhibition Ratio: urinary protein", "excerpt": "The antinephritic activities were estimated according to the methods described in \"Arerugii\", Vol. 24, p. 472 (1975) (in Japanese).\n*Successive oral administration began for 2 days before the injection of […]"}, "[2]": {"experiment": "Acute toxicity against mice", "details": "mouse, in vivo, mice (ICR, male, 22-25 g)", "excerpt": "Acute toxicity of Compound A against mice (ICR, male, body weight 22-25 g) was as follows."}, "[3]": {"tested_on": "adjuvant arthritis", "experiment": "Inhibitory effects on the adjuvant arthritis of rats (antirheumatic activity)", "format": "in vivo", "details": "for Foot Volume: control 2.34 ml; for Inhibition Rate: foot volume", "method": "The antirheumatic activities on adjuvant arthritis were estimated according to the methods described in \"Arzneimittel-Forschung (Drug Res.)\", Vol. 22, p. 1959 (1972).\n*Successive administration was performed immediately after inoculation of […]"}, "[4]": {"tested_on": "mice (ICR, male)", "experiment": "Subacute toxicities against mice (oral, 21 days)", "format": "in vivo", "details": "100 mg/kg/day orally", "method": "Subacute toxicities of Compound A against mice (ICR, male, body weight approximately 25 g) were as follows. The said compound was orally administered for 21 days. The dosage level was 100 mg/kg/day."}},
  "data": [
    {"compound": "NC(=O)c1nc[nH]c1O", "note": "[Compound A, 4-carbamoyl-5-hydroxyimidazole]", "values": [
      {"measurement": "Urinary Protein", "setting": "[1]; 5 mg/kg/day × 16, p.o.", "value": 147.6, "unit": "mg/24 hrs."},
      {"measurement": "Urinary Protein", "setting": "[1]; 10 mg/kg/day × 16, p.o.", "value": 68.4, "unit": "mg/24 hrs."},
      {"measurement": "Urinary Protein", "setting": "[1]; 25 mg/kg/day × 16, p.o.", "value": 28.4, "unit": "mg/24 hrs."},
      {"measurement": "Inhibition Ratio", "setting": "[1]; 5 mg/kg/day × 16, p.o.", "value": 38.2, "unit": "%"},
      {"measurement": "Inhibition Ratio", "setting": "[1]; 10 mg/kg/day × 16, p.o.", "value": 71.4, "unit": "%"},
      {"measurement": "Inhibition Ratio", "setting": "[1]; 25 mg/kg/day × 16, p.o.", "value": 88.1, "unit": "%"},
      {"measurement": "LD50", "setting": "[2]; ip", "value": "> 500", "unit": "mg/kg"},
      {"measurement": "LD50", "setting": "[2]; iv", "value": "> 130", "unit": "mg/kg"},
      {"measurement": "LD50", "setting": "[2]; po", "value": "> 2000", "unit": "mg/kg"},
      {"measurement": "Foot Volume", "setting": "[3]; 5 mg/kg/day × 21, p.o.", "value": 1.28, "unit": "mL"},
      {"measurement": "Foot Volume", "setting": "[3]; 10 mg/kg/day × 21, p.o.", "value": 0.88, "unit": "mL"},
      {"measurement": "Foot Volume", "setting": "[3]; 25 mg/kg/day × 21, p.o.", "value": 0.44, "unit": "mL"},
      {"measurement": "Inhibition Rate", "setting": "[3]; 5 mg/kg/day × 21, p.o.", "value": 45.3, "unit": "%"},
      {"measurement": "Inhibition Rate", "setting": "[3]; 10 mg/kg/day × 21, p.o.", "value": 62.3, "unit": "%"},
      {"measurement": "Inhibition Rate", "setting": "[3]; 25 mg/kg/day × 21, p.o.", "value": 81.2, "unit": "%"},
      {"measurement": "Autopsy", "setting": "[4]", "value": "No adverse effect"},
      {"measurement": "Body weight change", "setting": "[4]", "value": "Normal"},
      {"measurement": "Clinical signs", "setting": "[4]", "value": "No adverse effect except slight involution of the spleen"},
      {"measurement": "Food consumption", "setting": "[4]", "value": "Normal"},
      {"measurement": "Haematology, overall finding", "setting": "[4]", "value": "No adverse effect"},
      {"measurement": "Relative organ weight, Heart (average)", "setting": "[4]", "value": 0.49, "unit": "%"},
      {"measurement": "Relative organ weight, Kidney (average)", "setting": "[4]", "value": 1.50, "unit": "%"},
      {"measurement": "Relative organ weight, Liver (average)", "setting": "[4]", "value": 6.24, "unit": "%"},
      {"measurement": "Relative organ weight, Lung (average)", "setting": "[4]", "value": 0.81, "unit": "%"},
      {"measurement": "Relative organ weight, Spleen (average)", "setting": "[4]", "value": 0.30, "unit": "%"},
      {"measurement": "Relative organ weight, Testis (average)", "setting": "[4]", "value": 0.38, "unit": "%"},
      {"measurement": "Relative organ weight, Thymus (average)", "setting": "[4]", "value": 0.20, "unit": "%"},
      {"measurement": "Urinalysis, overall finding", "setting": "[4]", "value": "No adverse effect"},
      {"measurement": "GOT (average)", "setting": "[4]; Haematology", "value": 54.4, "unit": "K.U."},
      {"measurement": "Hematocrit value (average)", "setting": "[4]; Haematology", "value": 35, "unit": "%"},
      {"measurement": "Hemoglobin (average)", "setting": "[4]; Haematology", "value": 15.1, "unit": "g/dL"},
      {"measurement": "Red blood cells (average)", "setting": "[4]; Haematology", "value": "6.0 × 10^6 /mm^3"},
      {"measurement": "White blood cells (average)", "setting": "[4]; Haematology", "value": "6.5 × 10^4 /mm^3"},
      {"measurement": "Glucose (urinalysis)", "setting": "[4]; Urinalysis", "value": "Negative"},
      {"measurement": "Occult blood (urinalysis)", "setting": "[4]; Urinalysis", "value": "Negative"},
      {"measurement": "Protein (urinalysis)", "setting": "[4]; Urinalysis", "value": "30 to 100", "unit": "mg/dL"},
      {"measurement": "pH (urinalysis)", "setting": "[4]; Urinalysis", "value": "6.0-6.5"}
    ]}
  ]
}
